Data as given in ChEMBL document CHEMBL1201862, “PubChem BioAssay data set” (2004).
The source made the active and inactive calls.

Key:
[1] = molecular target: Neuropeptides B/W receptor type 1 (Homo sapiens, UniProt P48145); test: Fluorescence-based dose response cell-based high throughput screening assay to identify antagonists of the G-protein coupled receptor 7 (GPR7). [Related pubchem assays: 1952 (Screening assay (GPR7 antagonists).), 1880 (Summary AID.)]; format: functional
[2] = molecular target: T1, Heat shock factor protein 1 (Mus musculus, UniProt P38532); test: inhibition of MG132-induced HSE-luciferase signal, confirmation, cell-based, NIH3T3, luminescence, dose retest (AID 2382); format: functional;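 also: NIH3T3 fibroblasts with HSF1-driven luciferase reporter stressed by proteasome inhibitor MG132; luminescence from HSF1-driven luciferase expression after 8 hours of MG132 stress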
T1 sequence (P38532 whole entry): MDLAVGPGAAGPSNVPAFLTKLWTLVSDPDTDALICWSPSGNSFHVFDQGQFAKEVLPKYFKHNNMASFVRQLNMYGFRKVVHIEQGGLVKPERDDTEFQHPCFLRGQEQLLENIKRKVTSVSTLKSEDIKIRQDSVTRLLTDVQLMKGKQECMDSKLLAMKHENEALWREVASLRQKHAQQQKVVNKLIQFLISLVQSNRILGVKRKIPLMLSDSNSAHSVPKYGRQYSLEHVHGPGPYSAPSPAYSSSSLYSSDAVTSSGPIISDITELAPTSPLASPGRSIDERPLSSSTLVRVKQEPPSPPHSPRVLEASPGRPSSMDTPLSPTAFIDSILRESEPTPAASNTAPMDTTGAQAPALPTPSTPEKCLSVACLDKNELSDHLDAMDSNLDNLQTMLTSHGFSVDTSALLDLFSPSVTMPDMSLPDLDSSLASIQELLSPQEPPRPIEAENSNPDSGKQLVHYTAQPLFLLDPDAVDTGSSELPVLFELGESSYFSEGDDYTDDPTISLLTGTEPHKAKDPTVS

[3] = molecular target: Melanin-concentrating hormone receptor 1 (Homo sapiens, UniProt Q99705); test: Fluorescence-based counterscreen for antagonists of the G-protein coupled receptor 7 (GPR7): cell-based high throughput dose response assay to identify antagonists of the melanin-concentrating hormone receptor 1 (MCHR1).; format: functional
[4] = Concentration-dependent survival of SW480 colon cancer line, luminescence detection with CellTiter-Glo, half-maximal inhibitory concentration (AID 1117338); format: functional
[5] = cytotoxicity toward HCT116 cells – cell-based, CellTiter-Glo luminescence, IC50, dose response (AID 1117332); format: functional; conditions: HCT-116
[6] = SNU-C1 cell viability reduction, dose response, CellTiter-Glo luminescence (AID 1117323); format: functional, cell-based
[7] = CellTiter-Glo luminescent dose response of DLD-1 viability loss (AID 1117352); format: functional
[8] = cytotoxicity toward Colo320 cells – cell-based, CellTiter-Glo luminescence, IC50, dose response (AID 1117334); format: functional; conditions: COLO 320
[9] = RKO cell viability reduction, dose response, CellTiter-Glo luminescence (AID 1117322); format: functional
[10] = cytotoxicity toward HT-29 cells – cell-based, CellTiter-Glo luminescence, IC50, dose response (AID 1117330); format: functional
[11] = HCT116 cell viability decrease, GSK3B pretreatment – CellTiter-Glo, IC50, dose response (AID 1117339); format: functional; conditions: HCT-116
[12] = M. tuberculosis growth inhibition, HTS (AID 449762); format: functional
[13] = molecular target: 5-hydroxytryptamine receptor 1A (Homo sapiens, UniProt P08908); format: functional
[14] = molecular target: E3 ubiquitin-protein ligase Mdm2 (Homo sapiens, UniProt Q00987); test: enhancers of MDM2-luciferase reporter signal, concentration-effect titration, project on inhibitors of MDM2 ubiquitin ligase, cellular assay, luminescent readout, 384-well plate format (AID 1394); format: functional;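 also: MDM2 E3 inhibitors raise luminescence so EC50 is for signal enhancement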
[15] = molecular target: Photoreceptor-specific nuclear receptor (Homo sapiens, UniProt Q9Y5X4); test: NR2E3 inverse agonists, dose response, biochemical, TR-FRET (AID 463256); format: functional
[16] = molecular target: Peroxisome proliferator-activated receptor gamma/Nuclear receptor corepressor 2 (Homo sapiens, UniProt P37231+Q9Y618); test: Counterscreen for NR2E3 inverse agonists: TR-FRET-based biochemical high throughput dose response assay to identify inverse agonists of the interaction between peroxisome proliferator-activated receptor gamma (PPARg) and nuclear receptor co-repressor 2 (NCOR2).; format: functional
[17] = molecular target: T2, Tyrosine-protein phosphatase non-receptor type 7 (Homo sapiens, UniProt P35236); test: inhibitors of human HePTP phosphatase, […], biochemical, absorbance, leukemia target (AID 521); format: functional
T2 sequence (P35236 whole entry): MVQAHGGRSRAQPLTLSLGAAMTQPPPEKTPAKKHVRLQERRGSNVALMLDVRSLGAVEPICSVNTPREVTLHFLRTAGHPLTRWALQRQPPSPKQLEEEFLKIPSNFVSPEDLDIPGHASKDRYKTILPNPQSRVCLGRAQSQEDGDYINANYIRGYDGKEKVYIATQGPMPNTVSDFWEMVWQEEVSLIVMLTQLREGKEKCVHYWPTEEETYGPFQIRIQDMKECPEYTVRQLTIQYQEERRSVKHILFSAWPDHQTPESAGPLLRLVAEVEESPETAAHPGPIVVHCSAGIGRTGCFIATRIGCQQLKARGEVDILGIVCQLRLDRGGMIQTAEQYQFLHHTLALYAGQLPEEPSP

[18] = cytotoxicity toward NIH3T3 fibroblasts, dose response, counter-screen, cell-based, ATP luminescence, mouse fibroblasts (AID 2010); format: functional;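 also: cells exposed to compound for about 90 hours before reading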
[19] = inhibitors of intracellular T. cruzi replication, confirmation, NIH3T3 host cells, beta-gal luminescence (AID 2044); format: functional, cell-based;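 also: intracellular parasites grown in NIH/3T3 mouse fibroblasts as host cells; luminescent beta-galactosidase reporter signal from transgenic T. cruzi replicating inside host cells; inhibitors lower the luminescence signal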

Chain of Neuropeptides B/W receptor type 1 (P48145 whole entry): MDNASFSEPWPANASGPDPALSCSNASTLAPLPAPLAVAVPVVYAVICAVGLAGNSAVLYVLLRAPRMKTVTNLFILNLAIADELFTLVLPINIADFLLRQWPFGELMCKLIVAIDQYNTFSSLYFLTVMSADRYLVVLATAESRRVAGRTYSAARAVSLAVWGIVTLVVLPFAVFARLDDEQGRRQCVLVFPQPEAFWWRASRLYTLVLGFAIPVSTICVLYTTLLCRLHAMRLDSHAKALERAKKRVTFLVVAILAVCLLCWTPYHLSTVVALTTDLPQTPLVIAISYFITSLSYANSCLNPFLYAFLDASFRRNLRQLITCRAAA
Chain of 5-hydroxytryptamine receptor 1A (P08908 whole entry): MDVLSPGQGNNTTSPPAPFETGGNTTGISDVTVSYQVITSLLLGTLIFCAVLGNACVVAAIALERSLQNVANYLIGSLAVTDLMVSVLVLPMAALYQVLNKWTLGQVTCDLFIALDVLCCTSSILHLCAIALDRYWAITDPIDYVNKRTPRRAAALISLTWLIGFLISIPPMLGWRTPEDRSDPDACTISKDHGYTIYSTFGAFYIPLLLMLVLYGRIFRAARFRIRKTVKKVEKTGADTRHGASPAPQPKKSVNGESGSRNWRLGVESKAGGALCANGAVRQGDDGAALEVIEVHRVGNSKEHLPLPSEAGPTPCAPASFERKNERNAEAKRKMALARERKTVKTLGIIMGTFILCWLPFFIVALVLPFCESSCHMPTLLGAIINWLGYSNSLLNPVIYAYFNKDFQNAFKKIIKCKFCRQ
Chain of Melanin-concentrating hormone receptor 1 (Q99705 whole entry): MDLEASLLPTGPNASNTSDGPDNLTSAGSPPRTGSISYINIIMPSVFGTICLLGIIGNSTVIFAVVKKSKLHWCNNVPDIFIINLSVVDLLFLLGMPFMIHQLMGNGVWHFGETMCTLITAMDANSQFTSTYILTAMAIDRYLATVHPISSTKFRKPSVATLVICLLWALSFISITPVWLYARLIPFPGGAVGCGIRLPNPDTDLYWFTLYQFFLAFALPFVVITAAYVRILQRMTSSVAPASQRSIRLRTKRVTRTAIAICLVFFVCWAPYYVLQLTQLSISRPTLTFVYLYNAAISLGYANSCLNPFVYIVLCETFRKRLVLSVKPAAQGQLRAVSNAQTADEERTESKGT
Chain of Photoreceptor-specific nuclear receptor (Q9Y5X4 whole entry): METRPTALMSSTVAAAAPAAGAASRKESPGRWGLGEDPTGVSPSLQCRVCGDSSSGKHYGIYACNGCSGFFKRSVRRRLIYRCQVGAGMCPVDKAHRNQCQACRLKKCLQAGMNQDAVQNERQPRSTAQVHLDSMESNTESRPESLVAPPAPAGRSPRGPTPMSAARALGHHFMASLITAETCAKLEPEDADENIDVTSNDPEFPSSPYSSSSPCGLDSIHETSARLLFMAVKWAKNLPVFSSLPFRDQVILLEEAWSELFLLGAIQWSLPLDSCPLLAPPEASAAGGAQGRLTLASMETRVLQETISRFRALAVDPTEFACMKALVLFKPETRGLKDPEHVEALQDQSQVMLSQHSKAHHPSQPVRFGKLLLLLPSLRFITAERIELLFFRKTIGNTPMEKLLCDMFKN
Chain of E3 ubiquitin-protein ligase Mdm2 (Q00987 whole entry): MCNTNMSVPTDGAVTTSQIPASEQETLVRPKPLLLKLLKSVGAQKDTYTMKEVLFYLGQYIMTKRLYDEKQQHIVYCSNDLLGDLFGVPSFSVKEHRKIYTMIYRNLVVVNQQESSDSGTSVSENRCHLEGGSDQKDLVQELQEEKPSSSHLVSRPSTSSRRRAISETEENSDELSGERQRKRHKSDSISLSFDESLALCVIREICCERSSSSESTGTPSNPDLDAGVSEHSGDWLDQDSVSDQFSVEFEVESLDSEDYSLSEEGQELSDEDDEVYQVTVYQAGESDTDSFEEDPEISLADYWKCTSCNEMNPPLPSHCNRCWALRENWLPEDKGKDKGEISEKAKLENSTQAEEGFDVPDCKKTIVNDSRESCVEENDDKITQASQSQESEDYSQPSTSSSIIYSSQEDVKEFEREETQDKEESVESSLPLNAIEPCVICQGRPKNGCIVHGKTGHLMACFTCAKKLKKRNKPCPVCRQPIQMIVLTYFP
Chain of Peroxisome proliferator-activated receptor gamma/Nuclear receptor corepressor 2 (P37231 whole entry): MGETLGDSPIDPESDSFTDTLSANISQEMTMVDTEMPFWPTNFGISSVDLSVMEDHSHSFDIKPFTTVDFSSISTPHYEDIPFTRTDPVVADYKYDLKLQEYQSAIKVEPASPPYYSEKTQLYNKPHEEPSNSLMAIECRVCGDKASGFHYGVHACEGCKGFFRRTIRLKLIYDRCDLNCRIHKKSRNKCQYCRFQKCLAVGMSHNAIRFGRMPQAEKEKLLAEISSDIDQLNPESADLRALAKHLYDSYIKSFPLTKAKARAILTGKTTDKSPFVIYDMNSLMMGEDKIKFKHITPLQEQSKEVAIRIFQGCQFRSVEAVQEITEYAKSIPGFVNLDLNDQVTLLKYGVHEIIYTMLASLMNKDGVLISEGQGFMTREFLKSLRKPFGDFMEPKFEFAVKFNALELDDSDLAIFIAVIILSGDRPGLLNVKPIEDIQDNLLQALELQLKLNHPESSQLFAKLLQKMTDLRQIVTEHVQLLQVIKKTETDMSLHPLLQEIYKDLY
Chain of Peroxisome proliferator-activated receptor gamma/Nuclear receptor corepressor 2 (Q9Y618 whole entry): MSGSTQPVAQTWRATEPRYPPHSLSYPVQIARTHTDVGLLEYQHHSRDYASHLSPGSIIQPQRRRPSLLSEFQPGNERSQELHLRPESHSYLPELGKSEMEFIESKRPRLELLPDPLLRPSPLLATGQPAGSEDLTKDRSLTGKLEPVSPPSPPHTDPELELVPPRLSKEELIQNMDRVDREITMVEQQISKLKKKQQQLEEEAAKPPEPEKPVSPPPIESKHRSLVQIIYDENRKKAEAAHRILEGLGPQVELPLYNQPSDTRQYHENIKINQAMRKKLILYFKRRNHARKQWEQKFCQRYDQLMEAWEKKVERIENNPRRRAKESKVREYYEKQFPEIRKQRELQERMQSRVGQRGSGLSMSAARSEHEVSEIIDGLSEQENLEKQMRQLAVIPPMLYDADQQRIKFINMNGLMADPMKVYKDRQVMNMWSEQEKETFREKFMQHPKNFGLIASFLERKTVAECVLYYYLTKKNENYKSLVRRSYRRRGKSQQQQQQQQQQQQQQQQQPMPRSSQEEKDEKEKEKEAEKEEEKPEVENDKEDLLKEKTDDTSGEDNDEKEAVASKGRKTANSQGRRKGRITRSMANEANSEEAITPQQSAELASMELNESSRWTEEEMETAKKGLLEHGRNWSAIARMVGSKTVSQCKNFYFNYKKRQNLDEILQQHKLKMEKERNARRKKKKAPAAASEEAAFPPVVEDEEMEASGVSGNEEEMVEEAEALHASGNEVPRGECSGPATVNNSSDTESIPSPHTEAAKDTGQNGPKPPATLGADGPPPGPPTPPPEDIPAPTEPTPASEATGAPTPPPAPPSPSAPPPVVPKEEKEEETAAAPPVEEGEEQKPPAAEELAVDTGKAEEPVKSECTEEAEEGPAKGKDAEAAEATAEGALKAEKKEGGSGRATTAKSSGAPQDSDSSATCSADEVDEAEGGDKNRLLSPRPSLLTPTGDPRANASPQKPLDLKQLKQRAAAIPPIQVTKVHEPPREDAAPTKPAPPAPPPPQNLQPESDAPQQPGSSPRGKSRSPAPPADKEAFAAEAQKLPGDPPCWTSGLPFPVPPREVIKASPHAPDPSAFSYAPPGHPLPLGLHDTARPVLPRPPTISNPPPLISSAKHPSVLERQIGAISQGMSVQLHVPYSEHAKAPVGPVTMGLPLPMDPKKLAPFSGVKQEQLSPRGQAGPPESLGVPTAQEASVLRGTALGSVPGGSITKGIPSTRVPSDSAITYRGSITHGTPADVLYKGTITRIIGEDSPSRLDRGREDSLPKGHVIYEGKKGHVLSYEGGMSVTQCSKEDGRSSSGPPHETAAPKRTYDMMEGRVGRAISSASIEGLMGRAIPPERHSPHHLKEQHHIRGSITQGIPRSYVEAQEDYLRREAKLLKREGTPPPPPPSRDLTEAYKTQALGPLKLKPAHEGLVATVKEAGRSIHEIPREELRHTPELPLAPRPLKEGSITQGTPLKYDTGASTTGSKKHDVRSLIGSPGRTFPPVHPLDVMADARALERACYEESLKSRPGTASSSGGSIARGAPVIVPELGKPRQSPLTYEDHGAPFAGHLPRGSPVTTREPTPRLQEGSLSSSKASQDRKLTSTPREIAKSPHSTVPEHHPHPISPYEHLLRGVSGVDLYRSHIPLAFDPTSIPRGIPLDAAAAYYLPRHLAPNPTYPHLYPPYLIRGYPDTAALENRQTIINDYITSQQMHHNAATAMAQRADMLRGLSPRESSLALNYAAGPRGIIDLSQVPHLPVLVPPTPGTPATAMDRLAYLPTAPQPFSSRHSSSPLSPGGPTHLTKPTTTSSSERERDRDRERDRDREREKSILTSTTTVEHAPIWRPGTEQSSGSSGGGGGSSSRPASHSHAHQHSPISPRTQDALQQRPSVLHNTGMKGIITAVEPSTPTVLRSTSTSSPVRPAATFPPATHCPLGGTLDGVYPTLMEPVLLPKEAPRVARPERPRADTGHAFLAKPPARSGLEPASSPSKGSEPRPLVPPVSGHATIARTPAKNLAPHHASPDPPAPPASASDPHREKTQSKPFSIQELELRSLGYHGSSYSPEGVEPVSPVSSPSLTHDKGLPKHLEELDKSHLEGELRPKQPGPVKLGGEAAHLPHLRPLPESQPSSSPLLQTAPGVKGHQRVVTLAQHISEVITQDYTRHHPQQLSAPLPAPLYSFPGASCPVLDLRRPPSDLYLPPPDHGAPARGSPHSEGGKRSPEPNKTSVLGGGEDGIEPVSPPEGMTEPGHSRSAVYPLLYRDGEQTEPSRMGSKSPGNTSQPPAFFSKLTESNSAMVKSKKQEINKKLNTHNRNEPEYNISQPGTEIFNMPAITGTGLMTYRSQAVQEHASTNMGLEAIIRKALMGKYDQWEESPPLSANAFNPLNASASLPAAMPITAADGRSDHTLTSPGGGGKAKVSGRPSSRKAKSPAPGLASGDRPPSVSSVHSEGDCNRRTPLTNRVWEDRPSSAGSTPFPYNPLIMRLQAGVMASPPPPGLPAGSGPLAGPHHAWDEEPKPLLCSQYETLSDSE

For `CCCC(CCC)C(=O)Nc1ccc2c(c1)N(C(=O)CCN1CCN(C)CC1)c1ccccc1CC2`, the IC50 [1] was 7.8 µM (active), the EC50 [2] was > 195 µM (not active) and the IC50 [3] was 15.7 µM (not active).

With `Cc1nnc(NS(=O)(=O)c2ccc(N)cc2)s1` [SULFAMETHIZOLE] the IC50 [4] was > 20 µM (inactive), the IC50 [5] was > 20 µM (inactive) and the IC50 [6] was > 20 µM (inactive). The IC50 [7] was > 20 µM (inactive), the IC50 [8] was > 20 µM (inactive) and the IC50 [9] was > 20 µM (inactive). The IC50 [10] was > 20 µM (inactive) and the IC50 [11] was > 20 µM (inactive).

With `CCCSC1=C(C#N)C(c2ccc(Cl)cc2Cl)CC(=O)N1` (centres undefined) the IC50 [12] was > 25 µM (active).

With `CN(C)CCCn1c(NC(=O)C2CCCCC2)nc2ccccc21` the EC50 [13] was > 50 µM (not active).

With `CC(=O)NC1C(=O)N=C(SCC(=O)NC(C)c2ccccc2)NC1=O` (centres undefined) the EC50 [14] was 1.67 µM (not active).

With `COc1ccc(N2CCN(CC(=O)Nc3ccccc3C(=O)NCc3ccccc3)CC2)cc1` the IC50 [15] was 3.67 µM (active) and the IC50 [16] was 3.53 µM (active).

With `O=C(Nc1ccc2c(c1)OCO2)NC1CCN(Cc2ccccc2)CC1` the IC50 [17] was > 100 µM (not active), the EC50 [18] was > 60 µM (not active) and the EC50 [19] was 1 µM (active).
